{"source": "paper PMC12329707", "about": "“Ancestral Sequence Reconstruction of the Ethylene-Forming Enzyme” (Biochemistry, 2025)", "key": {"[1]": {"target": "T1, PaIPNS (Pseudomonas aeruginosa, UniProt Q9HWJ0)", "T1 construct": "gene PA4191; synthetic codon-optimised gene in pET28a, E. coli; N-terminal His6 tag removed by TEV; EDTA-treated apoprotein reconstituted with Fe(II)", "T1 sequence (Q9HWJ0 1-334)": "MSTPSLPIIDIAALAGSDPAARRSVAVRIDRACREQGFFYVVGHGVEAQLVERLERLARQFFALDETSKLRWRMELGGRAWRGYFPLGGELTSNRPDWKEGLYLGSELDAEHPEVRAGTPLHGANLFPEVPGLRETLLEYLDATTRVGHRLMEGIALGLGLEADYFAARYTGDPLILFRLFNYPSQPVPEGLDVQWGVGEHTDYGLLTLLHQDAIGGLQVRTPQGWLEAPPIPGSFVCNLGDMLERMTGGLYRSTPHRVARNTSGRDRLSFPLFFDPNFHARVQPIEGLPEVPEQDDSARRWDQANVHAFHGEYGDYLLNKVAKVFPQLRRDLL", "experiment": "anaerobic UV-visible difference spectroscopy (MLCT)", "assay_type": "binding", "conditions": "Fe(II) 1 mM, dithionite 2 mM, 25 mM HEPES pH 7.5"}, "[2]": {"tested_on": "T2, Anc357 (synthetic construct)", "T2 construct": "pET28a, E. coli; N-terminal His6 tag removed by TEV; 37,413 Da expected after cleavage; monomer", "experiment": "anaerobic UV-visible difference spectroscopy (MLCT)", "assay_type": "binding", "conditions": "Fe(II)"}, "[3]": {"target": "T3, Din11 (Arabidopsis thaliana, UniProt Q8H113)", "T3 construct": "gene 2ODDC23.2; synthetic codon-optimised gene in pET28a, E. coli; N-terminal His6 tag, removed by TEV; Fe(II) added", "T3 sequence (Q8H113 1-357)": "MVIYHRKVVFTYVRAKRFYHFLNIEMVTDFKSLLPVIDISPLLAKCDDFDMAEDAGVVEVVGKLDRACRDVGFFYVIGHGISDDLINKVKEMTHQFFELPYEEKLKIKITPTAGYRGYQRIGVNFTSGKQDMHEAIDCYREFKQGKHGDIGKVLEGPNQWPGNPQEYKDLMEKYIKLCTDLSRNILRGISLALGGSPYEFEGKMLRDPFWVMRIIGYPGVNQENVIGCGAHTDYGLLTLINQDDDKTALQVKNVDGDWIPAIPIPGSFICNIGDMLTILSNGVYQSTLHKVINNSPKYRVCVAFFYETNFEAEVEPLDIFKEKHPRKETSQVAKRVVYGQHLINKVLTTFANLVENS", "experiment": "P5C formation, colorimetric assay", "assay_type": "biochemical", "conditions": "2OG 6.67 mM, L-Arg 6.67 mM, Fe(II) 0.4 mM, ascorbate 0.8 mM, HEPES pH 7.5, room temperature"}}}
{"smiles": "O=C(O)CCC(=O)C(=O)O", "note": "[2OG]", "values": [{"measurement": "anaerobic UV-visible difference spectroscopy (MLCT)", "setting": "[1]", "value": "The PaIPNS spectra clearly demonstrated that PaIPNS binds 2OG"}, {"measurement": "anaerobic UV-visible difference spectroscopy (MLCT)", "setting": "[2]", "value": "consistent with 2OG binding (Figure S6)"}]}
{"smiles": "N=C(N)NCCC[C@H](N)C(=O)O", "note": "[L-Arg]", "values": [{"measurement": "P5C formation, colorimetric assay", "setting": "[3]", "value": "this enzyme hydroxylated L-Arg to produce P5C"}]}
